Data: patent US9545105B2, “1-(heterocyclic carbonyl) piperidines” (BAYER INTELLECTUAL PROPERTY GMBH, priority 2010, dated 2017)

What was measured:
Pyrenophora teres = assay: In vivo preventive test on Pyrenophora teres (barley); conditions: 500 ppm of active ingredient, evaluated 7-9 days after inoculation
Procedure, shortened: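 Young barley plants sprayed with compound in DMF/alkylaryl polyglycol ether emulsion; inoculated with P. teres spores one day later. 48 h at 22 °C, 100% humidity, then greenhouse ~20 °C, ~80% humidity; efficacy scored 7-9 days post-inoculation, 0% = untreated, 100% = no disease.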

[1] = log P by HPLC on reversed-phase column (C 18), EEC Directive 79/831 Annex V.A8; assay type: physicochemical; conditions: HPLC on reversed-phase column (C 18), 40° C., 0.1% aqueous formic acid and acetonitrile, linear gradient 10% to 90% acetonitrile
Procedure, shortened: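 40° C; 0.1% aq. formic acid/acetonitrile, linear gradient 10→90% acetonitrile. Calibration: unbranched alkan-2-ones (C3–C16), known log P. log P from retention time, linear interpolation between neighbouring alkanones. lambda-max from UV 200–400 nm at peak maxima.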

Uromyces appendiculatus = assay: In vivo preventive test on Uromyces appendiculatus (bean rust); conditions: 100 ppm of active ingredient, evaluated 10 days after inoculation
Description: (§1) Solvent: 24.5 parts by weight of acetone • 24.5 parts by weight of N,N-dimethylacetamide Emulsifier: 1 part by weight of alkylaryl polyglycol ether To produce a suitable preparation of active compound, 1 part by weight of active compound is mixed with the stated amounts of solvent and emulsifier, and the concentrate is diluted with water to the desired concentration. To test for preventive activity, young plants are sprayed with the preparation of active compound at the stated rate of application. After the spray coating has dried on, the plants are inoculated with an aqueous spore suspension of the causal agent of bean rust (Uromyces appendiculatus) and then remain for 1 day in an incubation cabinet at approximately 20° C. and a relative atmospheric humidity of 100%. The plants are then placed in a greenhouse at approximately 21° C. and a relative atmospheric humidity of approximately 90%. The test is evaluated 10 days after the inoculation. 0% means an efficacy which corresponds to that of the untreated control, while an efficacy of 100% means that no disease is observed.

Septoria tritici = assay: In vivo preventive test on Septoria tritici (wheat); conditions: 500 ppm of active ingredient, evaluated 21 days after inoculation
Description: Solvent: 49 parts by weight of N,N-dimethylacetamide Emulsifier: 1 part by weight of alkylaryl polyglycol ether To produce a suitable preparation of active compound, 1 part by weight of active compound or active compound combination is mixed with the stated amounts of solvent and emulsifier, and the concentrate is diluted with water to the desired concentration. To test for preventive activity, young plants are sprayed with the preparation of active compound or active compound combination at the stated rate of application. After the spray coating has been dried, the plants are sprayed with a spore suspension of Septoria tritici. The plants remain for 48 hours in an incubation cabinet at approximately 20° C. and a relative atmospheric humidity of approximately 100% and afterwards for 60 hours at approximately 15° C. in a translucent incubation cabinet at a relative atmospheric humidity of approximately 100%. The plants are placed in the greenhouse at a temperature of approximately 15° C. and a relative atmospheric humidity of approximately 80%. The test is evaluated 21 days after the inoculation. 0% means an efficacy which corresponds to that of the untreated control, while an efficacy of 100% means that no disease is observed.

[2] = system: Blumeria graminis f. sp. hordei; assay: In vivo preventive test on Blumeria graminis (barley); conditions: 500 ppm of active ingredient, evaluated 7 days after inoculation
Description: Solvent: 49 parts by weight of N,N-dimethylacetamide Emulsifier: 1 part by weight of alkylaryl polyglycol ether To produce a suitable preparation of active compound, 1 part by weight of active compound or active compound combination is mixed with the stated amounts of solvent and emulsifier, and the concentrate is diluted with water to the desired concentration. To test for preventive activity, young plants are sprayed with the preparation of active compound or active compound combination at the stated rate of application. After the spray coating has been dried, the plants are dusted with spores of Blumeria graminis f. sp. hordei. The plants are placed in the greenhouse at a temperature of approximately 18° C. and a relative atmospheric humidity of approximately 80% to promote the development of mildew pustules. The test is evaluated 7 days after the inoculation. 0% means an efficacy which corresponds to that of the untreated control, while an efficacy of 100% means that no disease is observed.

Sphaerotheca fuliginea = assay: In vivo preventive test on Sphaerotheca fuliginea (cucumber); conditions: 500 ppm of active ingredient, evaluated 7 days after inoculation
Description: Solvent: 49 parts by weight of N,N-dimethylformamide Emulsifier: 1 part by weight of Alkylarylpolyglycolether To produce a suitable preparation of active compound, 1 part by weight of active compound is mixed with the stated amounts of solvent and emulsifier, and the concentrate is diluted with water to the desired concentration. To test for preventive activity, young plants are sprayed with the preparation of active compound at the stated rate of application. One day after this treatment, the plants are inoculated with an aqueous spore suspension of Sphaerotheca fuliginea. Then the plants are placed in a greenhouse at approximately 23° C. and a relative atmospheric humidity of approximately 70%. The test is evaluated 7 days after the inoculation. 0% means an efficacy which corresponds to that of the untreated control, while an efficacy of 100% means that no disease is observed.

Venturia inaequalis = assay: In vivo preventive test on Venturia inaequalis (apple scab); conditions: 100 ppm of active ingredient, evaluated 10 days after inoculation
Description: as §1, with “conidia” for “spore”, “apple scab (Venturia inaequalis)” for “bean rust (Uromyces appendiculatus)”

Alternaria solani = assay: In vivo preventive test on Alternaria solani (tomato); conditions: 500 ppm of active ingredient, evaluated 7 days after inoculation
Procedure, shortened: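 Young tomato plants were sprayed preventively with compound in DMF/alkylarylpolyglycolether diluted in water, then inoculated one day later with A. solani spores. Incubation was 1 day at about 22 °C and 100% RH, then about 20 °C and 96% RH. Efficacy was scored 7 days after inoculation (0% = untreated control, 100% = no disease).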

| chromatographic logP ([1]; reversed-phase HPLC column (C 18)) | logP [1] | SMILES | Efficacy (Pyrenophora teres) [%] | Efficacy (Uromyces appendiculatus) [%] | Efficacy (Septoria tritici) [%] | Efficacy [2] [%] | Efficacy (Sphaerotheca fuliginea) [%] | Efficacy (Venturia inaequalis) [%] | Efficacy (Alternaria solani) [%] |
| --- | --- | --- | --- | --- | --- | --- | --- | --- | --- |
| 2.71 |  | Cc1ccccc1C1CCCCN1C(=O)c1c(C)nn(C)c1F (stereo not drawn) [Example 1, (5-fluoro-1,3-dimethyl-1H-pyrazol-4-yl)[2-(2-methylphenyl)-piperidin-1-yl]methanone] | 100 | 100 | 100 | 89 | 95 | 99 | 95 |
|  | 3.06 | CCc1nn(C)c(F)c1C(=O)N1CCCCC1c1ccccc1C (stereo not drawn) [Example 4] | 100 |  | 100 | 78 | 95 |  | 95 |
|  | 2.89 | Cc1nn(C)c(F)c1C(=O)N1CCCCC1c1ccccc1Cl (stereo not drawn) [Example 36] | 100 |  | 80 |  | 89 |  | 95 |
|  | 3.19 | CCc1nn(C)c(F)c1C(=O)N1CCCCC1c1ccccc1Cl (stereo not drawn) [Example 37] | 95 |  | 80 |  | 70 |  | 95 |
|  | 3.31 | CCc1nn(C)c(F)c1C(=O)N1CCCCC1c1cccc(Cl)c1 (stereo not drawn) [Example 43] | 100 |  | 80 |  |  |  | 95 |
|  | 2.94 | Cc1nn(C)c(F)c1C(=O)N1CCCCC1c1cccc(Cl)c1 (stereo not drawn) [Example 44] | 100 |  | 90 |  | 89 |  | 95 |
|  | 2.98 | Cc1nn(C)c(F)c1C(=O)N1CCCCC1c1ccc(Cl)cc1 (stereo not drawn) [Example 51] | 100 |  | 100 |  |  |  | 95 |
|  | 3.25 | Cc1nn(C)c(F)c1C(=O)N1CCCCC1c1cccc(Cl)c1Cl (stereo not drawn) [Example 73] | 100 |  | 80 |  | 85 |  | 95 |
|  | 3.39 | Cc1nn(C)c(F)c1C(=O)N1CCCCC1c1ccc(Cl)cc1Cl (stereo not drawn) [Example 76] | 100 |  | 100 |  |  |  | 90 |
|  | 3.29 | Cc1nn(C)c(F)c1C(=O)N1CCCCC1c1cc(Cl)ccc1Cl (stereo not drawn) [Example 83] | 100 |  | 80 |  | 94 |  | 95 |
|  | 3.96 | Cc1cc(C(=O)N2CCCCC2c2ccccc2Br)c(C)o1 (stereo not drawn) [Example 86] | 90 |  | 78 |  |  |  | 90 |
|  | 3.25 | CCc1nn(C)c(F)c1C(=O)N1CCCCC1c1ccccc1Br (stereo not drawn) [Example 87] | 100 |  | 89 |  |  |  | 95 |
|  | 2.99 | Cc1nn(C)c(F)c1C(=O)N1CCCCC1c1ccccc1Br (stereo not drawn) [Example 88] | 95 |  | 89 |  | 94 |  | 95 |
|  | 3.58 | CCc1nn(C)c(F)c1C(=O)N1CCCCC1c1ccc2ccccc2c1 (stereo not drawn) [Example 117] | 95 |  | 90 |  |  |  | 95 |
|  | 3.21 | Cc1nn(C)c(F)c1C(=O)N1CCCCC1c1ccc2ccccc2c1 (stereo not drawn) [Example 118] | 100 |  | 100 |  |  |  | 95 |
|  | 3.69 | Cn1nc(C(F)F)c(C(=O)N2CCCCC2c2ccc3ccccc3c2)c1F (stereo not drawn) [Example 122] | 100 |  |  |  | 94 |  | 100 |
|  | 4.36 | Cn1nc(C(F)F)c(C(=S)N2CCCCC2c2ccc3ccccc3c2)c1F (stereo not drawn) [Example 123] | 100 |  |  |  | 88 |  | 90 |
|  | 3.39 | CC(c1ccccc1)C1CCCCN1C(=O)c1c(C(F)F)nn(C)c1F (stereo not drawn) [Example 138] | 100 |  |  |  | 98 |  | 100 |
|  | 4.14 | CC(c1ccccc1)C1CCCCN1C(=S)c1c(C(F)F)nn(C)c1F (stereo not drawn) [Example 139] | 100 |  |  |  | 95 |  | 95 |
|  | 3.11 | Cn1nc(C(F)F)c(C(=O)N2CCCCC2Cc2ccc(F)cc2)c1F (stereo not drawn) [Example 156] | 100 |  |  |  | 75 |  | 100 |
|  | 3.72 | CC(c1ccccc1Cl)C1CCCCN1C(=O)c1c(C(F)F)nn(C)c1F (stereo not drawn) [Example 163] | 100 |  |  |  | 98 |  | 100 |
|  | 4.95 | CCC(c1ccccc1Cl)C1CCCCN1C(=S)c1c(C(F)F)nn(C)c1F (stereo not drawn) [Example 165] | 100 | 73 |  |  | 100 | 99 | 90 |
|  | 4.53 | CC(c1ccccc1Cl)C1CCCCN1C(=S)c1c(C(F)F)nn(C)c1F (stereo not drawn) [Example 166] | 100 |  |  |  | 100 |  | 100 |
|  | 3.25 | CCc1nn(C)c(F)c1C(=O)N1CCCCC1CCc1ccccc1 (stereo not drawn) [Example 176] | 95 |  | 70 |  |  |  | 90 |
|  | 3.57 | Cn1nc(C(F)F)c(C(=O)N2CCCCC2CCOc2ccc(C(F)(F)F)cn2)c1F (stereo not drawn) [Example 196] | 100 |  |  |  | 70 |  | 100 |
